Reference: publication PMC7317212 (Chemmedchem, 2020)

Assays:
[1] = target: T1, mGAT1 (Mus musculus, UniProt P31648); assay: MS Binding Assay with NO711 as native MS marker; settings: for remaining activity at 100 µM: in presence of 100 μM compound, read-out: remaining specific NO711 binding (mGAT1)
T1 construct: expressed in transfected cells; host or cells: HEK293
Experimental: (§1) For compounds with pIC50 ([^3H]GABA uptake assay) or pK i (MS Binding Assays) values close to or above 5.0, these experiments were repeated twice and SEM have been calculated.
MS Binding Assays: The MS Binding Assays were performed with mGAT1 membrane preparations obtained from a stably mGAT1 expressing HEK293 cell line and NO711 as unlabeled marker in competitive binding experiments as previously described in detail.34 In short, test compounds were investigated at 7 concentrations in presence of 10 nM NO 711 in competition experiments. Non specific binding was defined as binding remaining in the presence of 100 mM GABA. Incubation was terminated by transfer of 200 μL per well onto a 96‐well filter plate (Acroprep, glass fibre, 1.0 μm, 350 μL, Pall, Dreieich, Germany) with a 12 channel pipette. After rapid vacuum‐filtration the filters were washed with ice cold 0.9 % NaCl (5×150 μL) and dried at 50 °C for 60 min. Afterwards, the filters were eluted with 100 μL methanol containing [^2H10]NO711 (1.4 nM) as internal standard per well into a deep‐well plate by application of vacuum. This step was repeated twice resulting in a total elution volume of 300 μL. Finally, a volume of 130 μL ammonium formate buffer (10 mM, pH 7.0) was added per well and the generated samples analyzed by LC‐ESI‐MS/MS using a API 3200 as described in detail previously.40

[2] = target: T1, mGAT1; assay: [^3H]GABA uptake assay, HEK293 cells expressing mGAT1; format: cell-based; settings: for remaining activity at 100 µM: HEK293, in presence of 100 μM compound
Experimental: as §1
(§2) [^3H]GABA uptake assays: The [^3H]GABA uptake assays were performed according to Kragler et al.33 Cells were grown in 150 cm^2 plates to a confluence of 70–90 % up to passage 25. After detachment the cells were centrifuged 5 min at 500×g, washed for three times in phosphate buffered saline and, finally, resuspended in Krebs buffer (2.5 mM CaCl2, 1.2 mM MgSO4, 1.2 mM KH2PO4, 4.7 mM KCl, 11 mM glucose, 25 mM Tris, 119 mM NaCl, pH 7.2). The uptake assays were performed with aliquots of the resulting cell suspension (about 100000–200000 cells per well) in a total volume of 250 μl in 96 well 2.2 mL deep well plates. The cells were equilibrated for 25 min in Krebs buffer in the presence of the test compound at 37 °C in a gently shaking water bath. […] After addition of 25 μl of a solution containing [^3H]GABA (2.22 TBq/mmol, ARC, St Louis, MO, USA) and unlabeled GABA in Krebs (final concentration 8 nM [^3H]GABA and 32 nM unlabeled GABA for mGAT1, mGAT3, mGAT4 and 20 nM [^3H]GABA and 20 nM unlabeled GABA for mGAT2) the cells were incubated for further 4 min (mGAT1, mGAT3, mGAT4) or 10 minutes (mGAT2), respectively. The incubation was stopped by filtration through Sartorius MGC micro glass fiber filters pre‐soaked for 1 h in 0.9 % NaCl by means of a Brandell MWXR‐96TI cell harvester (Brandell, Gaithersburg, MD, USA) under reduced pressure. The filters were rinsed two times with cold 0.9 % NaCl and subsequently transferred to 96 well sample plates (Perkin Elmer LAS, Boston, MA, USA). After addition of 200 μl Rotiszint Eco Plus (Roth, Karlsruhe, Germany) per well the radioactivity was determined in a microbeta liquid scintillation counter (Perkin Elmer LAS, Boston, MA, USA). Non‐specific uptake was determined in presence of 10 mM GABA for mGAT1, mGAT3 and mGAT4 or 100 mM GABA for mGAT2, respectively. The results are expressed as means±S.E.M. of at least three separate experiments, each carried out in triplicate.

[3] = target: T2, mGAT2 (Mus musculus, UniProt P31651); assay: [^3H]GABA uptake assay, HEK293 cells expressing mGAT2; format: cell-based; settings: for remaining activity at 100 µM: HEK293, in presence of 100 μM compound; for IC50: [^3H]GABA uptake, pIC50±SEM
T2 construct: expressed in transfected cells; host or cells: HEK293
T2 sequence (P31651 1-614): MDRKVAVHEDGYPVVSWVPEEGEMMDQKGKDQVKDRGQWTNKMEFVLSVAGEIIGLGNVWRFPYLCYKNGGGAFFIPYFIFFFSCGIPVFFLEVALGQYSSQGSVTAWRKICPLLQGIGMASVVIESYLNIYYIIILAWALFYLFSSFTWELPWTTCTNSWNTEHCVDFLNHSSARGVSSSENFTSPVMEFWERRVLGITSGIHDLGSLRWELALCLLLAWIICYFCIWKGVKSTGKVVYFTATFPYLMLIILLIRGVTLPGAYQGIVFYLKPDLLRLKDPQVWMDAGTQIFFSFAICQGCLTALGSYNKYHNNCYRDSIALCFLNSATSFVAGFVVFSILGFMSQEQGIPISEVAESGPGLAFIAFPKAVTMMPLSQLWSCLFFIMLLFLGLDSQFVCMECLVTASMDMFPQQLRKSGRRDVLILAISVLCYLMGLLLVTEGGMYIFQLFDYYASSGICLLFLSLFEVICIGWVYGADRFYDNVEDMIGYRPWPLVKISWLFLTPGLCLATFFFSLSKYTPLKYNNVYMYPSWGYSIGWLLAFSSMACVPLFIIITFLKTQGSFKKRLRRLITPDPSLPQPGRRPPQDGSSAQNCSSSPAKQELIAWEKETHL
Experimental: as §1, §2

[4] = target: T3, mGAT3 (Mus musculus, UniProt P31649); assay: [^3H]GABA uptake assay, HEK293 cells expressing mGAT3; format: cell-based; settings: for remaining activity at 100 µM: HEK293, in presence of 100 μM compound; for IC50: [^3H]GABA uptake, pIC50±SEM
T3 construct: expressed in transfected cells; host or cells: HEK293
T3 sequence (P31649 1-602): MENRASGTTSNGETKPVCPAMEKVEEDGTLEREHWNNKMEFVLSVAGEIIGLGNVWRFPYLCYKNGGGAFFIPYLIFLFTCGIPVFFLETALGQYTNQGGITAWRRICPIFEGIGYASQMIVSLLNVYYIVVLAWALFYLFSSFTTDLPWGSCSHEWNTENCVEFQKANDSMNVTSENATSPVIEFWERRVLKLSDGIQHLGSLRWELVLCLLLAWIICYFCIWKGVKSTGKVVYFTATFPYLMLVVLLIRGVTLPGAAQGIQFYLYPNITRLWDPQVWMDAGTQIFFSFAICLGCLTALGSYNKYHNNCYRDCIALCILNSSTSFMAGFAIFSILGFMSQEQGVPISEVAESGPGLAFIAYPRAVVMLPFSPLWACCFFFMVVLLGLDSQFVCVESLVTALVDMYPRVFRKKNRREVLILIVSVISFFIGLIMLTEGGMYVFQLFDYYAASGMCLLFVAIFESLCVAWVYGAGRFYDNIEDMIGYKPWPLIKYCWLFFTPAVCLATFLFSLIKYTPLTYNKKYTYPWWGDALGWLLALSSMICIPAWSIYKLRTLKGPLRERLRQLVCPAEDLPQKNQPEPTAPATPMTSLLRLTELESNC
Experimental: as §1, §2

[5] = target: T4, mGAT4 (Mus musculus, UniProt P31650); assay: [^3H]GABA uptake assay, HEK293 cells expressing mGAT4; format: cell-based; settings: for IC50: [^3H]GABA uptake, pIC50±SEM; for remaining activity at 100 µM: HEK293, in presence of 100 μM compound
T4 construct: expressed in transfected cells; host or cells: HEK293
T4 sequence (P31650 1-627): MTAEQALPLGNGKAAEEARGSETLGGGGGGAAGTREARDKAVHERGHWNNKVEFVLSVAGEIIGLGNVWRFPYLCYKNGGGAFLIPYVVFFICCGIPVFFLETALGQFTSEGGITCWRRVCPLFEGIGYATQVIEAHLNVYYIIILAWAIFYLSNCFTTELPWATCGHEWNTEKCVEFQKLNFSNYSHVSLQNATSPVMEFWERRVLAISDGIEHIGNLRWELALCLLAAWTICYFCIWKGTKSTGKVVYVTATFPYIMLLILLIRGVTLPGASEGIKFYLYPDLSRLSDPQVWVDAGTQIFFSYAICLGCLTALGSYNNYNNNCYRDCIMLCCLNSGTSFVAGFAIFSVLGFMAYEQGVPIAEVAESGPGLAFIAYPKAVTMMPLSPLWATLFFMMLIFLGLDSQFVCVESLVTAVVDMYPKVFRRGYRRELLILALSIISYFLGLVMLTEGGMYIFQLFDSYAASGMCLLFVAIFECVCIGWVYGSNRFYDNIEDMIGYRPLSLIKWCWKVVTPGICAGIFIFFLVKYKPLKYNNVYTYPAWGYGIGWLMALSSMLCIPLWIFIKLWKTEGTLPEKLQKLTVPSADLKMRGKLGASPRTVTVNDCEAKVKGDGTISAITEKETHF
Experimental: as §1, §2

SMILES | remaining activity at 100 µM [1] [%] | remaining activity at 100 µM [2] [%] | remaining activity at 100 µM [3] [%] | remaining activity at 100 µM [4] [%] | IC50 [5] [µM] | Ki ([1]; MS Binding Assay, NO711 marker, pKi±SEM, read-out: pK i mGAT1 (converted)) [µM] | IC50 [4] [µM] | IC50 ([2]; [^3H]GABA uptake, pIC50±SEM) [µM] | IC50 [3] [µM] | remaining activity at 100 µM [5] [%]
COc1ccc(C(OCCN2CCCC(C(=O)O)C2)(c2ccc(CNC(C)(C)C(=O)O)cc2)c2ccc(OC)cc2)cc1 (racemic) [5 q, rac ‐1‐{2‐[(4‐{[(2‐Carboxypropan‐2‐yl)amino]methyl}phenyl)bis(4‐methoxyphenyl)methoxy]ethyl}piperidine‐3‐carboxylic acid] | 77 | 80.7 | 77 | 61.1 | 45.7 | – | – | – | – | –
COc1ccc(C(OCCN2CCCC(C(=O)O)C2)(c2ccc(C#N)cc2)c2ccc(OC)cc2)cc1 (racemic) [5 g, rac ‐1‐{2‐[(4‐Cyanophenyl)bis(4‐methoxyphenyl)methoxy]ethyl}piperidine‐3‐carboxylic acid] | – | 74.8 | 82.9 | – | 8.51 | 39.8 | 49 | – | – | –
CCOC(=O)CCNCc1ccc(C(OCCN2CCCC(C(=O)OCC)C2)(c2ccc(OC)cc2)c2ccc(OC)cc2)cc1 (racemic) [12 o, rac ‐Ethyl 1‐{2‐[(4‐{[(3‐ethoxy‐3‐oxopropyl)amino]methyl}phenyl)bis(4‐methoxyphenyl)methoxy]ethyl}piperidine‐3‐carboxylate] | 72.4 | – | – | – | 21.9 | – | 23.4 | 25.7 | 19.1 | –
CCOC(=O)C1CCCN(CCOC(c2ccc(COC)cc2)(c2ccc(COC)cc2)c2ccc(OC)cc2)C1 (racemic) [12 h, rac‐ Ethyl 1‐(2‐{bis[4‐(methoxymethyl)phenyl][4‐methoxyphenyl]‐methoxy}ethyl)piperidine‐3‐carboxylate] | 72.9 | 64.9 | – | 50.6 | 89.1 | – | – | – | 50.1 | –
COCc1ccc(C(OCCN2CCCC(C(=O)O)C2)(c2ccc(COC)cc2)c2ccc(OC)cc2)cc1 (racemic) [5 h, rac‐ 1‐(2‐{Bis[4‐(methoxymethyl)phenyl][4‐methoxyphenyl]methoxy}‐ethyl)piperidine‐3‐carboxylic acid] | 74.1 | 70.5 | 55.2 | 52.2 | 17 | – | – | – | – | –
COc1ccc(C(OCCN2CCCC(C(=O)O)C2)(c2ccc(CNCCCC(=O)O)cc2)c2ccc(OC)cc2)cc1 (racemic) [5 s, rac ‐1‐{2‐[(4‐{[(3‐Carboxypropyl)amino]methyl}phenyl)bis(4‐methoxy‐phenyl)methoxy]ethyl}piperidine‐3‐carboxylic acid] | 86.5 | 48.5 | 51.5 | – | 74.1 | – | 46.8 | – | – | –
CCOC(=O)C1CCCN(CCOC(c2ccc(CNC3(C(=O)OCC)CC3)cc2)(c2ccc(OC)cc2)c2ccc(OC)cc2)C1 (racemic) [12 p, rac‐ Ethyl 1‐(2‐{[4‐({[1‐(ethoxycarbonyl)cyclopropyl]amino}methyl)‐phenyl]bis[4‐methoxyphenyl]methoxy}ethyl)piperidine‐3‐carboxylate] | 95.8 | 75.5 | 103 | 58.8 | – | – | – | – | – | 66.1
CCOC(=O)C1CCCN(CCOC(C(=O)OC)(c2ccc(OC)cc2)c2ccc(OC)cc2)C1 (racemic) [12 k, rac‐ Ethyl 1‐{2‐[2‐methoxy‐1,1‐bis(4‐methoxyphenyl)‐2‐oxoethoxy]ethyl}‐piperidine‐3‐carboxylate] | 90.8 | 89.1 | 92.6 | 64.1 | – | – | – | – | – | 78.2
CCOC(=O)c1ccc(C(OCCN2CCCC(C(=O)OCC)C2)(c2ccc(OC)cc2)c2ccc(OC)cc2)cc1 (racemic) [12 e, rac‐ Ethyl 1‐(2‐{[4‐(ethoxycarbonyl)phenyl]bis[4‐methoxyphenyl]‐methoxy}ethyl)piperidine‐3‐carboxylate] | 74.8 | 84.6 | 87.3 | 79 | – | – | – | – | – | 76.1
COc1ccc(C(OCCN2CCCC(C(=O)O)C2)(C(=O)O)c2ccc(OC)cc2)cc1 (racemic) [5 k, rac ‐1‐{2‐[Carboxybis(4‐methoxyphenyl)methoxy]ethyl}piperidine‐3‐carboxylic acid] | 96.9 | 100 | 101 | 94 | – | – | – | – | – | 96.5
